Laboratory results taken from the CheMixHub ionic liquid set.

Test: xn = mol fraction of the nth substance listed
Conditions: 100 kPa

CC[n+]1ccn(C)c1.O=S(=O)([O-])O + CC(C)[C@H](N)C(=O)O + O
viscosity [mPa·s]
Conditions	293.15 K	298.15 K	303.15 K	308.15 K	313.15 K
x2 = 0, x1 = 0.0005421	1.046	0.929	0.824	0.75	0.678
x2 = 0, x1 = 0.0009056	1.068	0.949	0.843	0.759	0.684
x2 = 0, x1 = 0.001263	1.073	0.966	0.866	0.78	0.697
x2 = 0.0003674, x1 = 0.0009053	1.09	0.958	0.851	0.767	0.691
x2 = 0.0003913, x1 = 0.0005419	1.068	0.938	0.832	0.758	0.686
x2 = 0.0003924, x1 = 0.001263	1.096	0.975	0.875	0.787	0.705
x2 = 0.0007372, x1 = 0.001262	1.117	0.983	0.882	0.794	0.711
x2 = 0.000749, x1 = 0.0009049	1.112	0.966	0.859	0.774	0.698
x2 = 0.0007642, x1 = 0.0005417	1.09	0.947	0.84	0.765	0.693
x2 = 0.001083, x1 = 0.0005415	1.108	0.954	0.847	0.771	0.699
x2 = 0.001089, x1 = 0.0009046	1.132	0.974	0.866	0.781	0.704
x2 = 0.001118, x1 = 0.001262	1.139	0.992	0.89	0.802	0.718
x2 = 0.001457, x1 = 0.001262	1.159	1	0.897	0.808	0.725
x2 = 0.001475, x1 = 0.0009042	1.155	0.983	0.874	0.788	0.711
x2 = 0.001477, x1 = 0.0005413	1.131	0.963	0.855	0.779	0.706
x2 = 0.001795, x1 = 0.0005411	1.149	0.97	0.861	0.785	0.712
x2 = 0.001812, x1 = 0.0009039	1.175	0.991	0.881	0.795	0.717
x2 = 0.001817, x1 = 0.001261	1.18	1.008	0.905	0.816	0.731
x2 = 0.002249, x1 = 0.0005409	1.176	0.98	0.871	0.794	0.721
x2 = 0.002256, x1 = 0.001261	1.206	1.018	0.915	0.824	0.739
x2 = 0.002283, x1 = 0.0009035	1.203	1.001	0.891	0.804	0.726

CC(CC(C)(C)C)CP(=O)([O-])CC(C)CC(C)(C)C.CCCCCCCCCCCCCC[P+](CCCCCC)(CCCCCC)CCCCCC + CCC(=O)O + O
298.15 K
Conditions	viscosity [mPa·s]
x2 = 0.02049, x1 = 0.1002	133
x2 = 0.02069, x1 = 0.09762	145
x2 = 0.04451, x1 = 0.115	139
x2 = 0.231, x1 = 0.1669	147
x2 = 0.3019, x1 = 0.1781	150
x2 = 0.3925, x1 = 0.1645	145
x2 = 0.4515, x1 = 0.1697	133
x2 = 0.4652, x1 = 0.1675	127
x2 = 0.4969, x1 = 0.154	133
x2 = 0.5235, x1 = 0.1181	81
x2 = 0.5255, x1 = 0.1239	85
x2 = 0.5271, x1 = 0.1398	114
x2 = 0.5377, x1 = 0.108	60
x2 = 0.571, x1 = 0.09705	52
